# Reference: patent EP4745135A1 (Gluetacs Therapeutics (Shanghai) Co., Ltd., priority 2023, dated 2025)
# What was measured:
# [1] = tested on: Human non-small cell lung cancer cell line: NCI-H1975; test: Tumor cell proliferation inhibition (CellTiter-Meiluncell luminescent cell viability assay); settings: NCI-H1975, 96 h, read-out: Inhibitory activity (IC50, nM) on tumor cell proliferation, H1975
# Experimental: (§1) The tumor cells used herein were cultured in a cell culture medium listed in table 2 at 37°C in an incubator with 5% CO2. Prior to experimentation, all cell lines used were correctly identified by STR profiling, and tested negative for mycoplasma contamination using a mycoplasma detection kit through routine screenings.
# (§2) The IC50 values of the compounds of the present disclosure (including the compounds in Table 1 and Examples) were determined using the CellTiter-Meiluncell Luminescent Cell Viability Assay Kit from Dalian Meilun Biotech Co., Ltd. The detailed procedure is as follows: Tumor cells were seeded in 96-well cell culture plates at the densities specified in Table 3. On the following day, the test compounds of the present disclosure were subjected to serial dilution. The dilution can be performed according to one of the following two methods: • (1) The first dilution method: The test compounds of the present disclosure (including the compounds in Table 1 and Examples) were subjected to 5-fold serial dilutions starting from a highest concentration of 2000 µM, resulting in a total of 9 concentrations from high to low (2000, 400, 80, 16, 3.2, 0.64, 0.128, 0.0256, 0.00512 µM). Subsequently, 0.5 µL of the test compound dilution was transferred into the 96-well plate containing the cells, with each well containing 100 µL of cell culture medium. […] Into the 96-well plate, the diluted test compounds and corresponding detection reagents were added, resulting in final test compound concentrations of 500 nM and 10 nM, respectively. The experimental procedure is described below using the diluted 2 µM test compound as an example.
# (§3) 0.5 µL of the aforementioned diluted compound of the present disclosure (including the compounds in Table 1 and Examples) was added to the seeded cells in 100 µL of medium, yielding a final test compound concentration of 10 nM. After the cells were treated with the compounds of the present disclosure for a specified period, the cell viability assay reagent was added to the culture medium according to the kit's instructions to determine cell viability. […] All controls were treated using the same procedure as the compounds of the present disclosure. The growth inhibition curves for the compounds of the present disclosure were plotted using Prism GraphPad software, and the IC50 values were calculated therefrom.
# [2] = tested on: Human diffuse large B-cell lymphoma cell line: TMD8; test: as above; settings: TMD8, 96 h, read-out: Inhibitory activity (IC50, nM) on tumor cell proliferation, TMD8
# Experimental: as §1, §2
# 0.5 µL of the aforementioned diluted compound of the present disclosure (including the compounds in Table 1 and Examples) was added to the seeded cells in 100 µL of medium, yielding a final test compound concentration of 10 nM. […] The growth inhibition curves for the compounds of the present disclosure were plotted using Prism GraphPad software, and the IC50 values were calculated therefrom.
# [3] = tested on: Human malignant melanoma cell line: A375; test: as above; settings: A-375, 96 h
# Experimental: as §1, §2, §3
# [4] = tested on: Human multiple myeloma peripheral blood B lymphocyte cell (RPMI-8226); test: as above; settings: RPMI-8226, 96 h; for IC50: read-out: Inhibitory activity (IC50, nM) on tumor cell proliferation, RPMI-8226
# [5] = tested on: Human multiple myeloma cell (MM.1S); test: as above; settings: Homo sapiens, MM1.S, 96 h, read-out: Inhibitory activity (IC50, nM) on tumor cell proliferation, MM.1S
# [6] = tested on: Human colon cancer cell line: SW620; test: as above; settings: SW-620, 96 h
# Experimental: as §1, §2, §3
# [7] = tested on: Human mantle cell lymphoma cell line: JEKO-1; test: as above; settings: JeKo-1, 96 h, read-out: Inhibitory activity (IC50, nM) on tumor cell proliferation, JEKO-1
# Experimental: as §1, §2, §3
# [8] = tested on: Human gastric cancer cell line: MGC803; test: as above; settings: MGC-803, read-out: Inhibitory activity (IC50, nM) on tumor cell proliferation, MGC803
# Experimental: as §2, §3
# [9] = tested on: Human T cell acute lymphoblastic leukemia cell (CCRF-CEM); test: as above; settings: 96 h
# Experimental: as §1, §2, §3
# [10] = tested on: Human monocytic leukemia cell line: THP-1; test: as above; settings: THP-1, 96 h
# Experimental: as §1, §2, §3
# [11] = tested on: Human myeloid monocytic leukemia cell (MV-4-11); test: as above; settings: MV4-11, 96 h
# [12] = tested on: Human acute myeloid leukemia cell line: Kasumi-1; test: as above; settings: Kasumi 1, 96 h
# Experimental: as §1, §2, §3
# [13] = tested on: Human breast cancer cell (MCF-7); test: as above; settings: MCF7, 96 h
# [14] = tested on: Human T lymphocytic leukemia cell line: Jurkat; test: as above; settings: 96 h
# [15] = biological target: T1, human Cereblon WT GST-tagged protein (Homo sapiens, UniProt Q96SW2); test: CRBN-binding affinity, HTRF (CEREBLON BINDING kit); settings: CRBN binding, HTRF, 3 hours at room temperature; read-out: HTRF IC50
# T1 construct: purchased CISBIO 64BDCRBNPEH
# T1 sequence (Q96SW2 whole entry): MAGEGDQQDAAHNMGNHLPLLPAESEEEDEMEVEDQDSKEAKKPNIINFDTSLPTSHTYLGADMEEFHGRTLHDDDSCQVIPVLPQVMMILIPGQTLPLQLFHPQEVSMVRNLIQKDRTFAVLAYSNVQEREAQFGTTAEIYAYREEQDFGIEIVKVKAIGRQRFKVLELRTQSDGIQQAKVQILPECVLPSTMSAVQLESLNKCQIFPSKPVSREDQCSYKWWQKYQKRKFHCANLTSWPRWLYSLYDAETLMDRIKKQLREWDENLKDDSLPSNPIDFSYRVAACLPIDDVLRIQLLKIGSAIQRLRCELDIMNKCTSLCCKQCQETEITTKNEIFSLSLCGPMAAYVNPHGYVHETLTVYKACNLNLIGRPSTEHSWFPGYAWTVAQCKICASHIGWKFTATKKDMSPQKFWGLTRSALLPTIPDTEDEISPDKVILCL
# WEE1 = biological target: T2, WEE1 (Homo sapiens, UniProt P30291+Q96SW2); test: Western blot, degradation of substrate protein in hPBMCs; type: cell-based; settings: Western blot, 24 hours of compound treatment, compounds tested at 50 nM and 500 nM (concentration for the table not stated)
# T2 construct: effects of the compounds of the present disclosure on the expression of target proteins in cells; endogenous in cells; host or cells: human PBMCs (Milecell Biotechnologies)
# T2 sequence (P30291 whole entry): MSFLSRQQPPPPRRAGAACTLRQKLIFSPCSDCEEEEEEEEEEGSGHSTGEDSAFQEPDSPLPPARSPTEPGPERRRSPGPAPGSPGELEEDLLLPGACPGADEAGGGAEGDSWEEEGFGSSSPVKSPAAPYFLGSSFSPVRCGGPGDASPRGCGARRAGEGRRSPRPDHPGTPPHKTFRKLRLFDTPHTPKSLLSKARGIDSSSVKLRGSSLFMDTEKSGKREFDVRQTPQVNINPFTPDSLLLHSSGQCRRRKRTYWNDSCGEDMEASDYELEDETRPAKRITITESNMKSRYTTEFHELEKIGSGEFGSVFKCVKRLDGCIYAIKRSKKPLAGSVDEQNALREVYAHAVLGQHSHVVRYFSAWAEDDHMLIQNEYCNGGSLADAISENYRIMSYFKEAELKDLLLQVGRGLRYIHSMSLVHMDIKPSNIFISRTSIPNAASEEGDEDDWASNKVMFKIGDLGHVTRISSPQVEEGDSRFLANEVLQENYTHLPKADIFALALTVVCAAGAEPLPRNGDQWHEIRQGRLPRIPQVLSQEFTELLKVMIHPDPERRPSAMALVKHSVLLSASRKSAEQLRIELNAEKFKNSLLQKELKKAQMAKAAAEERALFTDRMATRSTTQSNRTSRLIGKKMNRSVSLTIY
# T2 sequence (Q96SW2 whole entry): as the sequence (Q96SW2 whole entry) above
# T2 sequence (Q16531 whole entry partner): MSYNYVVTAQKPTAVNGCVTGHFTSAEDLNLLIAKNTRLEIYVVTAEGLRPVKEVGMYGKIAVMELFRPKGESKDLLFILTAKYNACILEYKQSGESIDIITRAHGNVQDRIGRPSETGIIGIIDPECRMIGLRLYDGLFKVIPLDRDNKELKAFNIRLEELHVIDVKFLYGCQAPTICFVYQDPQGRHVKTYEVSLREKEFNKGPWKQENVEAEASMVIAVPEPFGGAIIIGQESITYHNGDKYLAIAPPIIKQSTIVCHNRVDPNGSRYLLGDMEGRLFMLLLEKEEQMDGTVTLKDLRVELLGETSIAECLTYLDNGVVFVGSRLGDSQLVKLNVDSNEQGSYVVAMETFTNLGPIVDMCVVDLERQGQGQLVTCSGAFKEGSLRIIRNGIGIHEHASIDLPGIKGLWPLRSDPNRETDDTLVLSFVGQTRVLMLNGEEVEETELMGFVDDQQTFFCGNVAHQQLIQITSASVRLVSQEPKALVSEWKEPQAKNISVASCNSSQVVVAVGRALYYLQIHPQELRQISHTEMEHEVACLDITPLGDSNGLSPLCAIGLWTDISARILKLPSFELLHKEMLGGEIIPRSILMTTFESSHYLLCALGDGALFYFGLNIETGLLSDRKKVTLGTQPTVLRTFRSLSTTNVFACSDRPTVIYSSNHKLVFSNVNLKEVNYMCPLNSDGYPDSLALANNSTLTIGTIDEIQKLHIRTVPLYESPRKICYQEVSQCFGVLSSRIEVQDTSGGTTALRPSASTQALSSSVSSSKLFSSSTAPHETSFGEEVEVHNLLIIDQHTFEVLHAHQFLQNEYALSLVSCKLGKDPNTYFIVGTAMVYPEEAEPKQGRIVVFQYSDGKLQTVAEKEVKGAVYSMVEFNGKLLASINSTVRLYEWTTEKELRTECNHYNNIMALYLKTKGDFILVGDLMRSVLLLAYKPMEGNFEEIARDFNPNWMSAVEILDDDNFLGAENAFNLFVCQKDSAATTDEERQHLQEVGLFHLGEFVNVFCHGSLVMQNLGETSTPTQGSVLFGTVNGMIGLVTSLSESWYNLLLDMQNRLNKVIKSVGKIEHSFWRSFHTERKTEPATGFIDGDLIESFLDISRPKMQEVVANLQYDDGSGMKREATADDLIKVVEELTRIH
# IKZF1 = biological target: T3, IKZF1 (Homo sapiens, UniProt Q13422+Q96SW2); test: as above; type: cell-based; settings: Western blot, 24 hours of compound treatment, compounds tested at 50 nM and 500 nM (concentration for the table not stated)
# T3 construct: effects of the compounds of the present disclosure on the expression of target proteins in cells; endogenous in cells; host or cells: human PBMCs (Milecell Biotechnologies)
# T3 sequence (Q13422 whole entry): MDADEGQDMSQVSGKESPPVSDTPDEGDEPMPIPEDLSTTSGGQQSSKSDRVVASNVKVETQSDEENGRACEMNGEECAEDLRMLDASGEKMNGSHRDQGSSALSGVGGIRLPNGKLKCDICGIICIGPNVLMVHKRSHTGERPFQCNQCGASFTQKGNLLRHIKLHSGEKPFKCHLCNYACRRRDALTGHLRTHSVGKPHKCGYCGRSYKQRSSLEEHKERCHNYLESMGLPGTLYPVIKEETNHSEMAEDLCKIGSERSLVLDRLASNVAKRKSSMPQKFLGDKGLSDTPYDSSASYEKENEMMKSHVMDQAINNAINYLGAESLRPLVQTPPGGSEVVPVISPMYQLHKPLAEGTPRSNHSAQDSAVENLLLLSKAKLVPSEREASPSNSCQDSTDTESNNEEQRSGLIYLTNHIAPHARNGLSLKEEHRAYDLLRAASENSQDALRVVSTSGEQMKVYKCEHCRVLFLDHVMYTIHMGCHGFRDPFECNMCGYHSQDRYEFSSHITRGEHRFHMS
# T3 sequence (Q96SW2 whole entry): as the sequence (Q96SW2 whole entry) above
# T3 sequence (Q16531 whole entry partner): as the sequence (Q16531 whole entry partner) above
# IKZF2 = biological target: T4, IKZF2 (Homo sapiens, UniProt Q96SW2+Q9UKS7); test: as above; type: cell-based; settings: Western blot, 24 hours of compound treatment, compounds tested at 50 nM and 500 nM (concentration for the table not stated)
# T4 construct: effects of the compounds of the present disclosure on the expression of target proteins in cells; endogenous in cells; host or cells: human PBMCs (Milecell Biotechnologies)
# T4 sequence (Q9UKS7 whole entry): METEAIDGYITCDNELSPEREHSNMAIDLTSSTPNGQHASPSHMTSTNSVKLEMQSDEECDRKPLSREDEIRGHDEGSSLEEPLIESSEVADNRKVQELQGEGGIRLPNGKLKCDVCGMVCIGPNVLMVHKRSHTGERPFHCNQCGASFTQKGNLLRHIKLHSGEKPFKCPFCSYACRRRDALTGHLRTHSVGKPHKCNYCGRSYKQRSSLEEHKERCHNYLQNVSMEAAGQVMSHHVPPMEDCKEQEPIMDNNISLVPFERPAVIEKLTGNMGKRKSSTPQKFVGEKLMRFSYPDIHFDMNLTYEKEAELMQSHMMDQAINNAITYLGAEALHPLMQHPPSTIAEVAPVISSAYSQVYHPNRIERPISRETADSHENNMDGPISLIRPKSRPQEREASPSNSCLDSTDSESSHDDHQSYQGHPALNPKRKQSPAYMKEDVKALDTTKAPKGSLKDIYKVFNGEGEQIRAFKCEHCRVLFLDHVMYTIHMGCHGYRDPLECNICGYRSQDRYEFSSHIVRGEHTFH
# T4 sequence (Q96SW2 whole entry): as the sequence (Q96SW2 whole entry) above
# T4 sequence (Q16531 whole entry partner): as the sequence (Q16531 whole entry partner) above
# IKZF3 = biological target: T5, IKZF3 (Homo sapiens, UniProt Q96SW2+Q9UKT9); test: as above; type: cell-based; settings: Western blot, 24 hours of compound treatment, compounds tested at 50 nM and 500 nM (concentration for the table not stated)
# T5 construct: effects of the compounds of the present disclosure on the expression of target proteins in cells; endogenous in cells; host or cells: human PBMCs (Milecell Biotechnologies)
# T5 sequence (Q9UKT9 whole entry): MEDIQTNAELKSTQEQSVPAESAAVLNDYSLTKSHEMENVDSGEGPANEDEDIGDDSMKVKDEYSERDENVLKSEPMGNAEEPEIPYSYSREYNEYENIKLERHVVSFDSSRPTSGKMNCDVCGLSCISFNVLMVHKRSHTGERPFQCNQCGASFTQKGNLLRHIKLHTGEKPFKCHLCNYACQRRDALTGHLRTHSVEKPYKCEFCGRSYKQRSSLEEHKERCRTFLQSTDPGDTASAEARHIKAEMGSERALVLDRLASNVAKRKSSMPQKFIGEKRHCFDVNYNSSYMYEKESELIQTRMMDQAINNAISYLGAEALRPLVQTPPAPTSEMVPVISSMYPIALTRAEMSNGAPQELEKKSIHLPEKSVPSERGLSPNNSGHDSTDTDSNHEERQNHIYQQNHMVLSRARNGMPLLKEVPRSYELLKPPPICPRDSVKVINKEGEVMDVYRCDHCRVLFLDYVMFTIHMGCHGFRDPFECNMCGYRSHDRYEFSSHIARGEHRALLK
# T5 sequence (Q96SW2 whole entry): as the sequence (Q96SW2 whole entry) above
# T5 sequence (Q16531 whole entry partner): as the sequence (Q16531 whole entry partner) above
# CK1α = biological target: T6, CK1α (Homo sapiens, UniProt P48729+Q96SW2); test: as above; type: cell-based; settings: Western blot, 24 hours of compound treatment, compounds tested at 50 nM and 500 nM (concentration for the table not stated)
# T6 construct: effects of the compounds of the present disclosure on the expression of target proteins in cells; endogenous in cells; host or cells: human PBMCs (Milecell Biotechnologies)
# T6 sequence (P48729 whole entry): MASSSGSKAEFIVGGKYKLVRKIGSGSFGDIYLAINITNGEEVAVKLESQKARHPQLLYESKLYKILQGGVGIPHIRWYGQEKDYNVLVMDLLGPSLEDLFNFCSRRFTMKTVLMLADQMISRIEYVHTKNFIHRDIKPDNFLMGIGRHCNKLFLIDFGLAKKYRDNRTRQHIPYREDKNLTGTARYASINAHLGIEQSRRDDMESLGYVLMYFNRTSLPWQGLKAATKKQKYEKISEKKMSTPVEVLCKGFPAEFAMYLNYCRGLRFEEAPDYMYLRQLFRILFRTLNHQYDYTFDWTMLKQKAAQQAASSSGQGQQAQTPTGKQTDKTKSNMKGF
# T6 sequence (Q96SW2 whole entry): as the sequence (Q96SW2 whole entry) above
# T6 sequence (Q16531 whole entry partner): as the sequence (Q16531 whole entry partner) above
# GSPT1 = test: as above; type: cell-based, Human; settings: Western blot, 24 hours of compound treatment, compounds tested at 50 nM and 500 nM (concentration for the table not stated)
# [16] = read-out: Inhibition Rate at 10 nM (%)
# [17] = read-out: Inhibition Rate at 500 nM (%)
structure (smiles),measurement,setting,value
"Nc1cccc2c1C(=O)N(C1CCC(=O)NC1=O)C2=O (stereo not drawn) [pomalidomide, reference compound]",IC50,[1],> 10000 nM
same,IC50,[2],> 10000 nM
same,inhibition at 0.01 µM,[3]; [16],10 to 20%
same,inhibition at 0.5 µM,[3]; [17],5 to 10%
same,inhibition at 0.01 µM,[4]; [16],10 to 20%
same,inhibition at 0.5 µM,[4]; [17],30 to 40%
same,IC50,[4],1000 to 5000 nM
same,IC50,[5],500 to 1000 nM
same,inhibition at 0.01 µM,[6]; [16],20 to 30%
same,inhibition at 0.5 µM,[6]; [17],20 to 30%
same,IC50,[7],5000 to 10000 nM
same,IC50,[8],> 10000 nM
same,inhibition at 0.01 µM,[9]; [16],0 to 5%
same,inhibition at 0.5 µM,[9]; [17],0 to 5%
same,inhibition at 0.01 µM,[10]; [16],10 to 20%
same,inhibition at 0.5 µM,[10]; [17],10 to 20%
same,inhibition at 0.01 µM,[11]; [16],18 to 25%
same,inhibition at 0.5 µM,[11]; [17],10 to 18%
same,inhibition at 0.01 µM,[12]; [16],-10 to -5%
same,inhibition at 0.5 µM,[12]; [17],-5 to 0%
same,inhibition at 0.01 µM,[13]; [16],5 to 10%
same,inhibition at 0.5 µM,[13]; [17],0 to 5%
same,IC50,"[13]; read-out: Inhibitory activity (IC50, nM) on tumor cell proliferation, MCF7",> 10000 nM
same,inhibition at 0.01 µM,[14]; [16],10 to 20%
same,inhibition at 0.5 µM,[14]; [17],10 to 20%
same,IC50,"[14]; read-out: Inhibitory activity (IC50, nM) on tumor cell proliferation, Jurkat",> 10000 nM
"Cn1cc(C2=CCN(Cc3ccc4c(c3)CN(C3CCC(=O)NC3=O)C4=S)CC2)c2ccc(F)cc21 (stereo not drawn) [GT-05247, 3-(5-((4-(6-fluoro-1-methyl-1H-indol-3-yl)-3,6-dihydropyridin-1(2H)-yl)methyl)-1-thioxoisoindolin-2-yl)piperidine-2,6-dione]",IC50,[15],100 to 500 nM
same,IC50,[2],100 to 500 nM
same,IC50,[4],10 to 50 nM
same,Wee1 substrate protein remaining %,WEE1,A (0% ≤ substrate protein remaining % ≤ 80%)
same,IKZF 1 substrate protein remaining %,IKZF1,B (80%< substrate protein remaining %≤ 100%)
same,IKZF2 substrate protein remaining %,IKZF2,A (0% ≤ substrate protein remaining % ≤ 80%)
same,IKZF3 substrate protein remaining %,IKZF3,A (0% ≤ substrate protein remaining % ≤ 80%)
same,CK1α substrate protein remaining %,CK1α,A (0% ≤ substrate protein remaining % ≤ 80%)
same,IC50,[5],< 5 nM
same,GSPT1 substrate protein remaining %,GSPT1,A (0% ≤ substrate protein remaining % ≤ 80%)
